Where two headings read alike, the source gives them in different places. No end group written: not given here.
Key:
C. tropicalis = type: cell-based, C. tropicalis (KCTC 7221); settings: 36 h
Excerpt: (§1) Aspergillus flavus (KCTC 6905), A. fumigatus (KCTC 6145), Fusarium moniliforme (KCTC 6149), F. oxysporum (KCTC 16909), C. albicans (KCTC 7270), C. krusei (CCARM 14017), C. parapsilosis (CCARM 14016), C. tropicalis (KCTC 7221), and T. beigelii (KCTC 7707) were obtained from the Korea Collection for Type Cultures (KCTC) and Culture Collection of Antimicrobial Resistant Microbes (CCARM). Mold and yeast fungi were pre-grown on potato dextrose (PD) and yeast extract peptone dextrose (YPD) agars, respectively.
(§2) Antifungal activity of peptides was performed by microtiter plate assays. Fungal conidia from four-day-old molds were collected using 0.08% Triton X-100 (v/v), and pre-cultivated yeast cells were adjusted to 2 × 10^4 spores/mL in 10 mM sodium phosphate buffer (SP, pH 7.2) or 10 mM 2-(N-morpholino)ethanesulfonic acid (MES) buffer (pH 5.5) supplemented with 20% culture medium, followed by addition to peptide solutions (0.25, 0.5, 1, 1.5, 2, 4, 6, 8, 12, 16, 32, 48, and 64 µM) in 96-well microtiter plates. After incubation for 36 h at 28 °C, the hyphal growth of conidia and the proliferation of yeast cells were observed under a light microscope. All assays were performed in triplicate. The MIC values were defined as the lowest concentration of samples that reduced fungal germination (for mold) or cell proliferation (for yeast) by more than 90% [34].

mouse erythrocytes = assay: Hemolytic assay; type: cell-based; settings: 64 µM peptide, 8% (v/v) mRBCs, 37 °C, 2 h (method) / 4 h (figure legend)
Description: Mouse blood was collected into sodium heparin-coated tubes (BD Vacutainer; BD Diagnostics, Oxford, UK). The mRBCs were obtained by centrifugation (800× g, 10 min) and washing with PBS. The washed mRBCs were added to a final concentration of 8% (v/v) in 64 µM peptide solution, followed by incubation for 2 h at 37 °C. After centrifugation, each tube was digitally recorded.

HaCaT cells = assay: Cytotoxicity, XTT cell viability assay; type: cell-based, human; settings: peptides 4-256 µM, 24 h incubation, triplicate
Description: Cell viability was assessed using sodium XTT assays. HaCaT (human immortalized keratinocytes) cells were cultured in Dulbecco’s modified Eagle medium (DMEM; ThermoFisher Scientific, Gibco, Waltman, MA, USA) supplemented with antibiotic-antimycotic (ThermoFisher Scientific, Gibco) and 10% fetal bovine serum (FBS; ThermoFisher Scientific, Gibco) at 37 °C in a humidified chamber containing 5% CO2. The cells were seeded at 5 × 10^4 cells/mL in flat-bottom 96-well microtiter plates in triplicate. Twenty-four hours later, cells were treated with two-fold serial dilutions of peptides (ranging from 256 to 4 µM) in medium, and the cells were further incubated for 24 h. Next, activated-XTT solution was added to each well and the plates were additionally incubated for 4 h. Absorbance in each well was measured at wavelengths of 480 and 650 nm using a microtiter SpectraMax M5 reader (Molecular Devices, Sunnyvale, CA, USA). Triton X-100 (0.1% v/v) and DMEM were used as controls for survival.

C. albicans = type: cell-based, C. albicans (KCTC 7270); settings: 36 h
Excerpt: as §1, §2

GLNALKKVFQGIHEAIKLINNHVQ-NH2 [Pseudin-2]
MIC (C. tropicalis; pH 5.5): 2 µM | MIC (C. tropicalis; pH 7.2): 4 µM | hemolytic effects (hemoglobin release, by visualization) (mouse erythrocytes): did not release hemoglobin | cytotoxic effects against HaCaT cells (HaCaT cells): significant, concentration-dependent cytotoxic effects | MIC (C. albicans; pH 5.5): 32 µM | MIC (C. albicans; pH 7.2): 12 µM

Reference: publication PMC7766124, “Improved Cell Selectivity of Pseudin-2 via Substitution in the Leucine-Zipper Motif: In Vitro and In Vivo Antifungal Activity” (Antibiotics, 2020)
